Data as given in patent publication US20110229423A1 (Galderma Research & Development, priority 2008, published 2011).

System: VPAC1R mRNA
Experiment: Semiquantitative RT-PCR of VPAC1R mRNA in HDMEC
Type: cell-based, human
Details: 6 h
Experimental: To verify our immunohistochemical observation on the mRNA level that the PACAP-induced effects in human dermal endothelial cells are mediated via VPAC1R, we performed RT PCR analysis for VPAC1R, VPAC2R and PAC1R in HDMEC (FIG. 11. Semiquantitative RT-PCR and gel electrophoresis of VPAC1R (FIG. 11A), PAC1R (FIG. 11B) and β-actin (FIG. 11C) in HDMEC. M=marker; lane 1: unstimulated HDMEC; lane 2: TNFα stimulated (4 ng/ml) HDMEC; lane 3 (11A): LPS-stimulated (10 ng/ml) HDMEC; lane 3 (11 B and 11C): HNK cells as positive control; lane 4: RT-control (negative control) In non-stimulated HDMEC cells, mRNA message was only found for PACAP and VPAC1R (FIG. 11A), but not PAC1R (FIG. 11B;) and VPAC2R (data not shown). Note that the PAC1R signal is positive in HNK cells that were used as a positive control. To examine whether proinflammatory mediators such as TNFα or LPS are capable of regulating VPAC1R mRNA expression, HDMEC were harvested without or 6 h after stimulation with TNFα (concentration: 4 ng/ml) or LPS (concentration: 10 ng/ml), respectively, and semiquantitative RT PCR was performed (FIG. 11). To consider the relative mRNA amount in the samples amplification of the housekeeping gene β-actin served as an internal control (FIG. 11C), TNFα as well as LPS induced upregulation of VPAC1R mRNA as compared to the unstimulated controls (FIG. 11). […]

Row | Substance | VPAC1R mRNA compared to unstimulated controls (4 ng/ml) | VPAC1R mRNA compared to unstimulated controls (10 ng/ml)
1 | TNFα | upregulation | 
2 | LPS |  | upregulation
